Measured values reported in patent US8247530B2, “N-alkylated cyclic peptide melanocortin agonists” (Palatin Technologies, Inc., priority 2005, dated 2012).
Where a SMILES comes first, the peptide text is derived from it. Bridges are numbered along the chain shown (N, C = ends). [ ]: non-standard residue; d: D form. 1Nal = N[C@@H](Cc1cccc2ccccc12)C(=O)O; Nle = CCCC[C@H](N)C(=O)O

Key:
MC4-R [1] = biological target: T1, MC4-R (Homo sapiens, UniProt P32245); test: Competitive inhibition Ki (AgRP), MC4-R; type: binding; conditions: AgRP as competing ligand
T1 construct: expressed in transfected cells; host or cells: HEK-293

male Sprague-Dawley rats = test: Penile erection induction in male rats; type: in vivo, rat; conditions: 1000 μg/kg IV, groups of 6 rats, one hour observation
Method: The ability of peptides to induce penile erection (PE) in male rats was evaluated with selected peptides. Male Sprague-Dawley rats weighing 200-250 g were kept on a 12 hour on/off light cycle with food and water ad libitum. All behavioral studies were performed between 10 a.m. and 5 p.m. Groups of 4-8 rats were administered peptides at a variety of doses via an intravenous (IV) route, and may alternatively be administered peptide by an intracerebroventricular (ICV) route. Immediately after treatment, rats were placed into individual polystyrene cages (27 cm long, 16 cm wide, and 25 cm high) for behavioral observation. […] For rats administered peptide by an ICV routes, rats are observed for two hours.
Selected peptides were tested as in Example 5. Peptide was administered by IV routes, and used at dose levels ranging from 1 μg/kg to 1000 μg/kg.

MC3-R [2] = biological target: T2, MC3-R (Homo sapiens, UniProt P41968); test: Competitive inhibition binding assay using [I125]-NDP-α-MSH, hMC3-R; conditions: radioligand [I125]-NDP-α-MSH, HEK-293 membranes; read-out: Ki (NDP-α-MSH) MC3-R
T2 construct: expressed in transfected cells; host or cells: HEK-293
Method: (§1) The assay tube also contained a chosen concentration of the test peptide of this invention, typically a 1 μM concentration, for determining its efficacy in inhibiting the binding of [I^125]NDP-α-MSH to the receptor.
(§2) The assay mixture was incubated for 60 minutes at 37° C., then filtered and the membranes washed three times with ice cold phosphate buffered saline. The filter was dried and counted in a gamma counter for remaining radioactivity bound to the membranes. 100% specific binding was defined as the difference in radioactivity (cpm) bound to cell membranes in the absence and presence of 1 μM NDP-α-MSH. […] Each assay was conducted in triplicate. The Ki (nM) of certain peptides of the invention were determined using similar assay protocols and testing peptides over a wider dose range.

[3] = biological target: T3, MC1-R (B-16 mouse melanoma cells) (Mus musculus, UniProt Q01727); test: cAMP functional assay for agonist/antagonist status, MC1-R; type: cell-based; conditions: for EC50: cAMP accumulation; for agonist/antagonist status as to MC1-R: cAMP assay; for efficacy relative to NDP-α-MSH, MC1-R: cAMP response ratio to NDP-α-MSH
T3 construct: B-16 mouse melanoma cells (containing MC1-R); endogenous in cells; host or cells: B-16 mouse melanoma cells
Method: Data analysis and EC50 values were determined using nonlinear regression analysis with Prism Graph-Pad software.
The agonist/antagonist status with respect to MC1-R, MC4-R and MC5-R of certain peptides of the invention was determined.

hMC4-R (HEK-293 cells) = biological target: T4, hMC4-R (HEK-293 cells) (Homo sapiens, UniProt P32245); test: cAMP functional assay for agonist/antagonist status, MC4-R; type: cell-based; conditions: for EC50: cAMP accumulation; for agonist/antagonist status as to MC4-R: cAMP assay; for efficacy relative to NDP-α-MSH, MC4-R: cAMP response ratio to NDP-α-MSH
T4 construct: expressed in transfected cells; host or cells: HEK-293
Method: (§3) Functional evaluation of peptides at melanocortin receptors was performed by measuring the accumulation of intracellular cAMP in HEK-293 cells expressing hMC3-R, hMC4-R or hMC5-R, and in B-16 mouse melanoma cells expressing MC1-R. Cells suspended in Earle's Balanced Salt Solution containing 10 mM HEPES (pH 7.5), 5 mM MgCl2, 1 mM glutamine, 0.5% albumin and 0.3 mM 3-isobutyl-1-methyl-xanthine, a phosphodiesterase inhibitor, were plated in 96 well plates at a density of 0.5×10^5 cells per well. Cells were incubated with the test peptides in the presence or absence of NDP-α-MSH for 1 hour at 37° C. cAMP levels in the cell lysates were measured using an EIA kit (Amersham). Data analysis and EC50 values were determined using nonlinear regression analysis with Prism Graph-Pad software.
(§4) The agonist/antagonist status with respect to MC1-R, MC4-R and MC5-R of certain peptides of the invention was determined. Antagonistic activity was determined by measuring the inhibition of α-MSH-induced or NDP-α-MSH-induced cAMP levels following exposure to the peptides as in the preceding descriptions.
Evaluation of the molecules to elicit a functional response in HEK-293 cells expressing hMC4-R for agonistic activity was done by measuring the accumulation of intracellular cAMP following treatment. Confluent HEK-293 cells over-expressing MC4-R receptors were detached by enzyme free cell suspension buffer. Cells were suspended in Earle's Balanced Salt Solution containing 10 mM HEPES (pH 7.5), 1 mM MgCl2, 1 mM glutamine, 0.5% albumin and 0.3 mM 3-isobutyl-1-methyl-[…]. The cells were plated in a 96 well plate at a density of 0.5×10^5 cells per well and pre-incubated for 60 minutes. The cells were then challenged with the test peptides dissolved in dimethylsulfoxide (DMSO) at a concentration range of 0.05-5000 nM in a total assay volume of 200 μL for 1 hour at 37° C. The concentration of DMSO was held at 1% in the assay mixture. NDP-α-MSH was used as the reference agonist. At the end of the incubation period the cells were disrupted by the addition of 50 μL lysis buffer from the cAMP EIA kit (Amersham). Complete rupture of the cells was ensured by pipetting the cells. cAMP levels in the cell lysates were measured after appropriate dilution using the EIA kit (Amersham) method. Data analysis and EC50 values were determined by using nonlinear regression analysis with the Prism Graph-Pad software.

[4] = biological target: T3, MC1-R (B-16 mouse melanoma cells); test: Competitive inhibition binding assay using [I125]-NDP-α-MSH, MC1-R; conditions: radioligand [I125]-NDP-α-MSH, B-16 mouse melanoma membranes
Method: The assay mixture was incubated for 60 minutes at 37° C., then filtered and the membranes washed three times with ice cold phosphate buffered saline. The filter was dried and counted in a gamma counter for remaining radioactivity bound to the membranes. […] Each assay was conducted in triplicate.

hMC3-R (HEK-293 cells) = biological target: T5, hMC3-R (HEK-293 cells) (Homo sapiens, UniProt P41968); test: cAMP functional assay for agonist/antagonist status, MC3-R; type: cell-based; conditions: for EC50: cAMP accumulation; for agonist/antagonist status as to MC3-R: cAMP assay; for efficacy relative to NDP-α-MSH, MC3-R: cAMP response ratio to NDP-α-MSH
T5 construct: expressed in transfected cells; host or cells: HEK-293
Method: as §3, §4

MC4-R [5] = biological target: T1, MC4-R; test: Competitive inhibition binding assay using [I125]-NDP-α-MSH, hMC4-R; conditions: radioligand [I125]-NDP-α-MSH, HEK-293 membranes; read-out: Ki (NDP-α-MSH) MC4-R
Method: as §1, §2

hMC5-R = biological target: T6, hMC5-R (Homo sapiens, UniProt P33032); test: Competitive inhibition binding assay using [I125]-NDP-α-MSH, hMC5-R; conditions: radioligand [I125]-NDP-α-MSH, HEK-293 membranes; read-out: Ki (NDP-α-MSH) MC5-R
T6 construct: expressed in transfected cells; host or cells: HEK-293
Method: as §1, §2

MC3-R [6] = biological target: T2, MC3-R; test: Competitive inhibition Ki (AgRP), MC3-R; type: binding; conditions: AgRP as competing ligand
Method: as §2

T3 sequence (Q01727 whole entry): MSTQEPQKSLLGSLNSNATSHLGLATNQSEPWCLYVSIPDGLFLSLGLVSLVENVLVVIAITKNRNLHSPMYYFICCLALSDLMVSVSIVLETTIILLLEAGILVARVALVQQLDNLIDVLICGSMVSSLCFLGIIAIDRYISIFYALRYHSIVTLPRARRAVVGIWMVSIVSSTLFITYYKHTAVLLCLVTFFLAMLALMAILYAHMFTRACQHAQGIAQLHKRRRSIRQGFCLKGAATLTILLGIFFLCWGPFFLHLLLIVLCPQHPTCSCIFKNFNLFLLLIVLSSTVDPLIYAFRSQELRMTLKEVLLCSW
T6 sequence (P33032 whole entry): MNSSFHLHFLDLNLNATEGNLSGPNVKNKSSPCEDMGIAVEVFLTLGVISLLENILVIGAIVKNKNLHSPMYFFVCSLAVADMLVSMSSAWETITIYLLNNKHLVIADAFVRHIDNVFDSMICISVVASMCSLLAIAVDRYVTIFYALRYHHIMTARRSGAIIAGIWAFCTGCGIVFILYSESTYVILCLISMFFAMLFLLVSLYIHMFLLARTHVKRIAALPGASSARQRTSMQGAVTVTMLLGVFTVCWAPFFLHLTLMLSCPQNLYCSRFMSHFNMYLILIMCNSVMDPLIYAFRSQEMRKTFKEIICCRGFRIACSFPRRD
T5 sequence (P41968 whole entry): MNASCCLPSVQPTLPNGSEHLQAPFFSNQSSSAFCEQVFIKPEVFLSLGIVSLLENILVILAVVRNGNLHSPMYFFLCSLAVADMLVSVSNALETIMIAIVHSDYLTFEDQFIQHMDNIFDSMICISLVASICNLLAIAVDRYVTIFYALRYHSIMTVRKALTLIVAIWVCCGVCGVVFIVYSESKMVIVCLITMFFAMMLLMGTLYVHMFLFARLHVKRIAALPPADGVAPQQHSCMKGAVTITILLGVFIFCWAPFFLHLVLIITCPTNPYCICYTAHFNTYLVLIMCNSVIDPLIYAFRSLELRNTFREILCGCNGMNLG
T2 sequence (P41968 whole entry): as above
T1 sequence (P32245 whole entry): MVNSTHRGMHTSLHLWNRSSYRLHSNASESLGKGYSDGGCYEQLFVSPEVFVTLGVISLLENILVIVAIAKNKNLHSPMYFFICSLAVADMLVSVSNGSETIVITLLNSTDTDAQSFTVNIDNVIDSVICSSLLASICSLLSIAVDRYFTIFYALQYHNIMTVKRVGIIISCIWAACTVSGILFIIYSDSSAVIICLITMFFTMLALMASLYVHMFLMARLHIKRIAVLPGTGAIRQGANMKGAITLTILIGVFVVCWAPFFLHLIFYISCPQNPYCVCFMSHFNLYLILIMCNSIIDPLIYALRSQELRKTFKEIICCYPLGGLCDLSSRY
T4 sequence (P32245 whole entry): as above

Row | Structure (SMILES) | Ki (MC4-R [1]) [nM] | rats exhibiting at least one PE (male Sprague-Dawley rats) [%] | Ki (MC3-R [2]) [nM] | EC50 [3] [nM] | agonist/antagonist status as to MC1-R [3] | efficacy relative to NDP-α-MSH, MC1-R [3] | EC50 (hMC4-R (HEK-293 cells)) [nM] | agonist/antagonist status as to MC4-R (hMC4-R (HEK-293 cells)) | efficacy relative to NDP-α-MSH, MC4-R (hMC4-R (HEK-293 cells)) | Ki [4] [nM] | EC50 (hMC3-R (HEK-293 cells)) [nM] | agonist/antagonist status as to MC3-R (hMC3-R (HEK-293 cells)) | efficacy relative to NDP-α-MSH, MC3-R (hMC3-R (HEK-293 cells)) | Ki (MC4-R [5]) [nM] | Ki (hMC5-R) [nM] | Ki (MC3-R [6]) [nM]
1 | CC(=O)N[C@H]1CC(=O)NCCCC[C@@H](C(=O)N(C)C)NC(=O)[C@H](Cc2c[nH]c3ccccc23)NC(=O)[C@H](CCCNC(=N)N)NC(=O)[C@@H](Cc2ccccc2)NC(=O)[C@H](Cc2c[nH]cn2)NC1=O [Example 13, Ac-cyclo(-Asp-His-D-Phe-Arg-Trp-Lys)-N(CH3)2] | 18 | 100 | 154 | 151 | agonist (response ratio compared to NDP-α-MSH of 0.7 and above were classified as full agonists) | 0.7 | 5 | partial agonist (Peptides with a ratio from 0.1 to 0.7 were classified as partial agonists) | 0.6 | 2 | 1250 | agonist (response ratio compared to NDP-α-MSH of 0.7 and above were classified as full agonists) | 1.3 | 12 | > 1000 | 
2 | CCNC(=O)[C@@H]1CCCCNC(=O)C[C@H](NC(C)=O)C(=O)N[C@@H](Cc2c[nH]c3ccccc23)C(=O)N[C@H](Cc2ccccc2)C(=O)N[C@@H](CCCNC(=N)N)C(=O)N[C@@H](Cc2cccc3ccccc23)C(=O)N1 [Example 14, Ac-cyclo(-Asp-Trp-D-Phe-Arg-Nal 1-Lys)-NH—CH2—CH3] (Ac-DW[dF]R[1Nal]K-NHEt; lactam 1-6 (inferred)) | 71 |  | 886 |  | inactive |  | 698 | agonist (response ratio compared to NDP-α-MSH of 0.7 and above were classified as full agonists) | 0.7 | 166 |  | inactive |  | 45 | > 2000 | > 10000
3 | CC(=O)N[C@H]1CC(=O)NCCCC[C@@H](C(=O)N(C)C)NC(=O)[C@H](Cc2cccc3ccccc23)NC(=O)[C@H](CCCNC(=N)N)NC(=O)[C@@H](Cc2ccccc2)NC(=O)[C@H](Cc2c[nH]c3ccccc23)NC1=O [Example 15, Ac-cyclo(-Asp-Trp-D-Phe-Arg-Nal 1-Lys)-N(CH3)2] (Ac-DW[dF]R[1Nal]K-NMe2; lactam 1-6 (inferred)) | 233 |  | 964 |  | inactive |  | 1540 | agonist (response ratio compared to NDP-α-MSH of 0.7 and above were classified as full agonists) | 0.9 | 215 |  | inactive |  | 122 | 549 | > 3000
4 | CC(=O)N[C@H]1CC(=O)NCCCC[C@@H](C(=O)N(C)C)NC(=O)[C@H](Cc2cccc3ccccc23)NC(=O)[C@H](CCCNC(=N)N)NC(=O)[C@@H](Cc2ccccc2)NC(=O)[C@H](Cc2c[nH]cn2)NC1=O [Example 17, Ac-cyclo(-Asp-His-D-Phe-Arg-Nal 1-Lys)-N(CH3)2] (Ac-DH[dF]R[1Nal]K-NMe2; lactam 1-6 (inferred)) |  | 100 | > 10000 | 2360 | agonist (response ratio compared to NDP-α-MSH of 0.7 and above were classified as full agonists) | 1.0 | 91 | agonist (response ratio compared to NDP-α-MSH of 0.7 and above were classified as full agonists) | 0.93 | 40 | > 1000 | partial agonist (Peptides with a ratio from 0.1 to 0.7 were classified as partial agonists) | 0.4 | 92 | > 10000 | 
5 | CCCC[C@H](NC(C)=O)C(=O)N[C@H]1CC(=O)NCCCC[C@@H](C(=O)NCC)NC(=O)[C@H](Cc2cccc3ccccc23)NC(=O)[C@H](CCCNC(=N)N)NC(=O)[C@@H](Cc2ccccc2)NC(=O)[C@H](Cc2c[nH]c3ccccc23)NC1=O [Example 18, Ac-Nle-cyclo(-Asp-Trp-D-Phe-Arg-Nal 1-Lys)-NH—CH2—CH3] (Ac-[Nle]DW[dF]R[1Nal]K-NHEt; lactam 2-7 (inferred)) | 26 |  |  | 397 | partial agonist (Peptides with a ratio from 0.1 to 0.7 were classified as partial agonists) | 0.3 |  | partial agonist (Peptides with a ratio from 0.1 to 0.7 were classified as partial agonists) | 0.6 | 3 | 1820 | partial agonist (Peptides with a ratio from 0.1 to 0.7 were classified as partial agonists) | 0.2 |  |  | 
